pIC50: −log10 of the molar value.
What follows are compounds tested against recombinant human 11β-HSD type 1 enzyme (Homo sapiens, UniProt P28845) (assay: 11β-HSD type 1 enzyme assay (NADPH fluorescence)). Details: three hour incubation at room temperature.
Type: biochemical
Method: 11β-HSD Type 1 Enzyme Assay Human 11β-HSD type 1 activity is measured by assaying NADPH production by fluorescence assay. Solid compounds are dissolved in DMSO to a concentration of 10 mM. Twenty microliters of each are then transferred to a column of a 96-well polypropylene Nunc plate where they are further diluted 50-fold followed by subsequent two-fold titration, ten times across the plate with additional DMSO using a Tecan Genesis 200 automated system. Plates are then transferred to a Tecan Freedom 200 system with an attached Tecan Temo 96-well head and an Ultra 384 plate reader. Reagents are supplied in 96-well polypropylene Nunc plates and are dispensed individually into black 96-well Molecular Devices High Efficiency assay plates (40 μL/well capacity) in the following fashion: 9 μL/well of substrate (2.22 mM NADP, 55.5 μM […], 10 mM Tris, 0.25% Prionex, 0.1% Triton X100), 3 μL/well of water to compound wells or 3 μL to control and standard wells, 6 μL/well recombinant human 11β-HSD type 1 enzyme, 2 μL/well of compound dilutions. For ultimate calculation of percent inhibition, a series of wells are added that represent assay minimum and maximum: one set containing substrate with 667 μM carbenoxolone (background), and another set containing substrate and enzyme without compound (maximum signal). Final DMSO concentration is 0.5% for all compounds, controls and standards. Plates are then placed on a shaker by the robotic arm of the Tecan for 15 seconds before being covered and stacked for a three hour incubation period at room temperature. Upon completion of this incubation, the Tecan robotic arm removes each plate individually from the stacker and places them in position for addition of 5 μL/well of a 250 μM carbenoxolone solution to stop the enzymatic reaction. Plates are then shaken once more for 15 seconds then placed into an Ultra 384 microplate reader (355EX/460EM) for detection of NADPH fluorescence.

recombinant human 11β-HSD type 1 enzyme, sequence (P28845 whole entry): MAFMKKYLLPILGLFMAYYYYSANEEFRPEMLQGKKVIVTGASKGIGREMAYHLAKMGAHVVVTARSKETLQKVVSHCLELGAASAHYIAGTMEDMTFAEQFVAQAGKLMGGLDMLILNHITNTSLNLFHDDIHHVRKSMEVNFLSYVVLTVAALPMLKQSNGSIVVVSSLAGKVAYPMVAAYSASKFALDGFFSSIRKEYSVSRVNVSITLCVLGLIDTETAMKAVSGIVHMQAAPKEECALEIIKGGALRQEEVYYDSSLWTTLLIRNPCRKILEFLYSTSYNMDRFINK

pIC50 | Compound
6.31 | O=C1C(Cc2ccc(-c3cccnc3)cc2Cl)CCCN1C1CCCCC1 (centres unmarked)
6.25 | CC1CCCCC1N1CCC(Cc2c(Cl)cc(-c3ccncc3)cc2Cl)C1=O (centres unmarked)
6.06 | O=C1C(Cc2c(F)cccc2Cl)CCCN1C1CCCCC1 (centres unmarked)
6.56 | CC1CCCCC1N1CCC(Cc2ccc(-c3cccnc3)cc2Cl)C1=O (centres unmarked) [drawing 383]
6.42 | O=C1C(Cc2ccc(-c3ccncc3)cc2Cl)CCN1C1CCCCC1 (centres unmarked)

Further lines, the compound ahead of its results:

Compound | pIC50
O=C1C(Cc2c(Cl)cc(Cl)cc2Cl)CCN1C1CCC(O)CC1 (centres unmarked) [drawing 379] | 6.64
O=C1C(Cc2ccc(Cl)cc2Cl)CCN1C1CCC(O)CC1 (centres unmarked) | 6.42

What follows are compounds tested on cortisone to cortisol conversion (11β-HSD type 1) (assay: Acute In Vivo Cortisone Conversion Assay). Details: mice dosed orally, subcutaneous cortisone challenge 30 mg/kg, serum cortisol by LC-MS/MS.
Method: Acute In Vivo Cortisone Conversion Assay
In general, compounds are dosed orally into mice, the mice are challenged with a subcutaneous injection of cortisone at a set timepoint after compound injection, and the blood of each animal is collected some time later. Separated serum is then isolated and analyzed for levels of cortisone and cortisol by LC-MS/MS, followed by calculation of mean cortisol and percent inhibition of each dosing group. Specifically, male C57BL/6 mice are obtained from Harlan Sprague Dawley at average weight of 25 grams. Exact weights are taken upon arrival and the mice randomized into groups of similar weights. Compounds are prepared in 1% w-w HEC, 0.25% w-w polysorbate 80, 0.05% w-w Dow Coming antifoam #1510-US at various doses based on assumed average weight of 25 grams. Compounds are dosed orally, 200 μl per animal, followed by a subcutaneous dose, 200 μl per animal, of 30 mg/kg cortisone at 1 to 24 hours post compound dose. At 10 minutes post cortisone challenge, each animal is euthanized for 1 minute in a CO2 chamber, followed by blood collection via cardiac puncture into serum separator tubes. Once fully clotted, tubes are spun at 2500×g, 4° C. for 15 minutes, the serum transferred to wells of 96-well plates (Coming Inc, Costar #4410, cluster tubes, 1.2 ml, polypropylene), and the plates are frozen at −20° C. until analysis by LC-MS/MS. For analysis, serum samples are thawed and the proteins are precipitated by the addition of acetonitrile containing d4-cortisol internal standard. Samples are vortex mixed and centrifuged. The supernatant is removed and dried under a stream of warm nitrogen. Extracts are reconstituted in methanol/water (1:1) and injected onto the LC-MS/MS system. The levels of cortisone and cortisol are assayed by selective reaction monitoring mode following positive ACPI ionization on a triple quadrupole mass spectrophotometer. […] Examples 91, 135, 119, 15, and 99 were active in the Acute In Vivo Cortisone Conversion Assay.

Compound | activity in the Acute In Vivo Cortisone Conversion Assay
O=C1C(Cc2c(Cl)cc(Cl)cc2Cl)CCN1C1CCC(O)CC1 (centres unmarked) [Example 135] | active
CC1CCCCC1N1CCC(Cc2ccc(-c3cccnc3)cc2Cl)C1=O (centres unmarked) [Example 99] | active
COc1ccc(Cl)c(CC2CCN(C3CCCCC3)C2=O)c1Cl (centres unmarked) [Example 69] | inactive
Cl.O=C1C(Cc2ccc(-c3ccncc3)cc2Cl)CCN1C1CCCCC1 (centres unmarked) [Example 91] | active
CC1CCCCC1N1CCC(Cc2c(Cl)cc(-c3ccncc3)cc2Cl)C1=O.Cl (centres unmarked) [Example 119] | active
CC1CCCCC1N1CCC(Cc2c(F)cccc2Cl)C1=O (centres unmarked) [Example 65] | inactive
O=C1C(Cc2ccc(Cl)cc2Cl)CCN1[C@H]1CC[C@H](O)CC1 (relative stereo) [Example 15, 3-(2,4-Dichloro-benzyl)-1-(trans-4-hydroxy-cyclohexyl)-pyrrolidin-2-one] | active

Source: patent publication US7713979B2, “Cycloalkyl lactam derivatives as inhibitors of 11-beta-hydroxysteroid dehydrogenase 1” (Eli Lilly and Company, priority 2004, dated 2010)
